US20260022143A1, “Cyclic Peptide Inhibitors of IL-23” (JANSSEN PHARMACEUTICA NV, priority 2022, published 2026)
pIC50: −log10 of the molar value. Starred links: 1 amine or outer side, 2 acyl side, 3 side chain; linkers in the order of their positions; H or OH if unused. Positions of bridges follow the written chain, without caps; N, C: chain ends. Non-standard residues stand in square brackets, D forms with d. Residues, ends and D or L forms follow the SMILES beside them. Groups on a side chain read outwards from the residue. *: point of attachment. Me3N+(CH2)2O(CH2)2O(CH2)2CO = C[N+](C)(C)CCOCCOCCC(=O)*; Trp(7-Me) = Cc1cccc2c(C[C@H](N)C(=O)O)c[nH]c12; PEG9 = NCCOCCOCCOCCOCCOCCOCCOCCOCCOCCC(=O)O; Phe(4-CH2NH2) = NCc1ccc(C[C@H](N)C(=O)O)cc1; Abu(4-yl) = O=C([C@H](CC[*:3])N[*:1])[*:2]; dLys(Me3) = C[N+](C)(C)CCCC[C@@H](N)C(=O)O; γGlu = O=C(O)[C@H](CCC(=O)[*:2])N[*:1]; 2Nal = N[C@@H](Cc1ccc2ccccc2c1)C(=O)O; AEF = NCCOc1ccc(C[C@H](N)C(=O)O)cc1; NMe3Pal = CN[C@@H](Cc1cccnc1)C(=O)O; dNMeY = CN[C@H](Cc1ccc(O)cc1)C(=O)O; 3Pal = N[C@@H](Cc1cccnc1)C(=O)O; Lys(Me) = CNCCCC[C@H](N)C(=O)O; NMeK = CN[C@@H](CCCCN)C(=O)O; Pen = CC(C)(S)[C@H](N)C(=O)O; αMeK = C[C@](N)(CCCCN)C(=O)O; Lauroyl = CCCCCCCCCCCC(=O)*; αMeC = C[C@](N)(CS)C(=O)O; Thp = NC1(C(=O)O)CCOCC1; X3 = C[N+](C)(C)CCCCC*; AEEA = NCCOCCOCC(=O)O; Sar = CNCC(=O)O

target: T1, IL-23R (Homo sapiens, UniProt Q5VWK5); experiment: IL23R Reporter Assay; type: cell-based; settings: HEK293 cells containing IL-23R, IL-12RP1 and STAT-inducible firefly luciferase reporter; 10 ng/mL IL-23 (EC90); 5 h at 37° C.; read-out: IL23R Reporter Assay
T1 construct: host or cells: HEK293
T1 sequence (Q5VWK5 24-629): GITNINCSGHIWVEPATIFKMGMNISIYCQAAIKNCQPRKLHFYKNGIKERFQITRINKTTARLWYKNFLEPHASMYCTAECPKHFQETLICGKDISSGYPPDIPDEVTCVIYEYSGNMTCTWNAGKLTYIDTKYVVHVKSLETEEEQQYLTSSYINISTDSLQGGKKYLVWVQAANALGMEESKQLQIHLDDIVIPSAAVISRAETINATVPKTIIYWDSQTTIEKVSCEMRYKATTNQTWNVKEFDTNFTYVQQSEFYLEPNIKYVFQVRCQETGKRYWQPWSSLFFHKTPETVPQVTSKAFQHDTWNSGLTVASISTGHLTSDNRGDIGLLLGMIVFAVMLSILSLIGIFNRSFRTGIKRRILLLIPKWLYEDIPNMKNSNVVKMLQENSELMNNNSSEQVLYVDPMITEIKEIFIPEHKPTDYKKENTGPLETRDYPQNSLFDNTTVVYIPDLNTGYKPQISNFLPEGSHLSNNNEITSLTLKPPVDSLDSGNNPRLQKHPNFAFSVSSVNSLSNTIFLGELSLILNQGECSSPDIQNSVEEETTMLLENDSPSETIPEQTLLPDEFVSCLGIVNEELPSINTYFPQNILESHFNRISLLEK

Structure (SMILES) | pIC50
CC(=O)N[C@@H]1C(=O)N[C@@H](CC(=O)N(C)C)C(=O)N[C@@H]([C@@H](C)O)C(=O)N[C@@H](Cc2c[nH]c3c(C)cccc23)C(=O)N[C@@H](COCCOCC[N+](C)(C)C)C(=O)N[C@H](C(=O)N[C@@H](Cc2ccc(OCCOCCOCC[N+](C)(C)C)cc2)C(=O)N[C@@H](Cc2ccc3ccccc3c2)C(=O)NC2(C(=O)N[C@@H](CCCCN(C)C(C)=O)C(=O)N[C@@H](CC(N)=O)C(=O)N[C@@H](Cc3cccnc3)C(=O)N(C)CC(=O)N(C)C)CCOCC2)C(C)(C)SSC1(C)C (relative stereo) [compound 267, MeCO-Pen(3)-N(N(Me)2)-T-7MeW-APEG2Ser(S*)-Pen(3)-APEG3F-2Nal-THP-K(NMeAc)-N-3Pya-Sar-CON(Me)2] | 8.38
CC(=O)NCCCC[C@H](NC(=O)[C@](C)(CCCCN)NC(=O)[C@H](Cc1ccc2ccccc2c1)NC(=O)[C@H](Cc1ccc(OCCN)cc1)NC(=O)[C@H]1NC(=O)[C@H](Cc2ccc(CNC(C)=O)cc2)NC(=O)[C@H](Cc2c[nH]c3c(C)cccc23)NC(=O)[C@H]([C@@H](C)O)NC(=O)[C@H](CC(N)=O)NC(=O)[C@@H](NC(C)=O)C(C)(C)SSC1(C)C)C(=O)N[C@@H](CC(N)=O)C(=O)N[C@H](CCCCN)C(=O)N(C)[C@H](Cc1ccc(O)cc1)C(N)=O [compound 23, MeCO-Pen(3)-N-T-7MeW-Paf(Ac)-Pen(3)-AEF-2Nal-aMeK-K(Ac)-N-k-NMeDTyr-CONH2] (Ac-[Pen]NT[Trp(7-Me)][Phe(4-CH2NH2)](Ac)[Pen][AEF][2Nal][αMeK]K(Ac)N[dK][dNMeY]-NH2; disulfide 1-6) | 6.82
CC(=O)NCCCC[C@@H]1NC(=O)[C@H](Cc2c[nH]c3c(C)cccc23)NC(=O)[C@H]([C@@H](C)O)NC(=O)[C@H](CC(N)=O)NC(=O)[C@@H](NC(=O)[C@@H](CCCNC(=N)N)NC(C)=O)C(C)(C)SSC(C)(C)[C@@H](C(=O)N[C@@H](Cc2ccc(OCCN)cc2)C(=O)N[C@@H](Cc2ccc3ccccc3c2)C(=O)NC2(C(=O)N[C@@H](CCC(=O)O)C(=O)N[C@@H](CC(N)=O)C(=O)N(C)[C@@H](Cc3cccnc3)C(N)=O)CCOCC2)NC1=O [compound 36] (Ac-[dR][Pen]NT[Trp(7-Me)]K(Ac)[Pen][AEF][2Nal][Thp]EN[NMe3Pal]-NH2; disulfide 2-7 (inferred)) | 6.03
CC(=O)NCCCC[C@@H]1NC(=O)[C@H](Cc2c[nH]c3c(C)cccc23)NC(=O)[C@H]([C@@H](C)O)NC(=O)[C@H](CC(N)=O)NC(=O)[C@@H](NC(=O)[C@@H](CCCCNC(=O)CCOCCOCCOCCOCCOCCOCCOCCOCCOCCNC(C)=O)NC(C)=O)C(C)(C)SSC(C)(C)[C@@H](C(=O)N[C@@H](Cc2ccc(OCCN)cc2)C(=O)N[C@@H](Cc2ccc3ccccc3c2)C(=O)NC2(C(=O)N[C@@H](CCCCNC(C)=O)C(=O)N[C@@H](CC(N)=O)C(=O)N[C@@H](Cc3cccnc3)C(=O)N(C)CC(N)=O)CCOCC2)NC1=O [compound 44] (Ac-[dK]([PEG9-Ac])[Pen]NT[Trp(7-Me)]K(Ac)[Pen][AEF][2Nal][Thp]K(Ac)N[3Pal][Sar]-NH2; disulfide 2-7 (inferred)) | 8.17
CC(=O)NCCCC[C@@H]1NC(=O)[C@H](Cc2c[nH]c3c(C)cccc23)NC(=O)[C@H]([C@@H](C)O)NC(=O)[C@H](CC(N)=O)NC(=O)[C@@H](NC(C)=O)C(C)(C)SSC(C)(C)[C@@H](C(=O)N[C@@H](Cc2ccc(OCCN)cc2)C(=O)N[C@@H](Cc2ccc3ccccc3c2)C(=O)NC2(C(=O)N[C@@H](CCC(=O)O)C(=O)N[C@@H](CC(N)=O)C(=O)N[C@@H](Cc3cccnc3)C(=O)N(C)CC(=O)N(C)C)CCOCC2)NC1=O [compound 276] (Ac-[Pen]NT[Trp(7-Me)]K(Ac)[Pen][AEF][2Nal][Thp]EN[3Pal][Sar]-NMe2; disulfide 1-6 (inferred)) | 7.26

Second part, the molecule after the results:

pIC50 | Structure (SMILES)
7.62 | CC(=O)N(C)CCCC[C@@H]1NC(=O)[C@H](Cc2c[nH]c3c(C)cccc23)NC(=O)[C@H]([C@@H](C)O)NC(=O)[C@H](CC(=O)N(C)C)NC(=O)[C@@H](NC(=O)CCOCCOCC[N+](C)(C)C)C(C)(C)SSC(C)(C)[C@@H](C(=O)N[C@@H](Cn2cc(CC[N+](C)(C)C)nn2)C(=O)N[C@@H](Cc2ccc3ccccc3c2)C(=O)NC2(C(=O)N[C@@H](CCCCN(C)C(C)=O)C(=O)N[C@@H](CC(N)=O)C(=O)N[C@@H](Cc3cccnc3)C(=O)N(C)CC(=O)N(C)C)CCOCC2)NC1=O [compound 287, cPEG3aCO-Pen(3)-N(N(Me)2)-T-7MeW-K(NMeAc)-Pen(3)-Tzl(Ch)-2Nal-THP-K(NMeAc)-N-3Pya-Sar-CON(Me)2]
8.38 | CCCCCCCCCCCC(=O)N[C@@H](CCC(=O)NCCOCCOCC(=O)NCCOCCOCC(=O)NCCCC[C@@H](C(N)=O)N(C)C(=O)[C@H](Cc1cccnc1)NC(=O)[C@H](CC(N)=O)NC(=O)[C@H](CCCCN(C)C(C)=O)NC(=O)C1(NC(=O)[C@H](Cc2ccc3ccccc3c2)NC(=O)[C@H](Cc2ccc(OCCCCC[N+](C)(C)C)cc2)NC(=O)[C@H]2NC(=O)[C@H](CCCCNC(C)=O)NC(=O)[C@H](Cc3c[nH]c4c(C)cccc34)NC(=O)[C@H]([C@@H](C)O)NC(=O)[C@H](CC(=O)N(C)C)NC(=O)[C@@H](NC(=O)CCOCCOCC[N+](C)(C)C)C(C)(C)SSC2(C)C)CCOCC1)C(=O)O [compound 313, cPEG3aCO-Pen(3)-N(N(Me)2)-T-7MeW-K(Ac)-Pen(3)-TMAPF-2Nal-THP-K(NMeaC)-N-3Pya-NMeK(PEG2PEG2gEC12)-CONH2] ({Me3N+(CH2)2O(CH2)2O(CH2)2CO}-[Pen]D(NMe2)T[Trp(7-Me)]K(Ac)[Pen]Y(X3)[2Nal][Thp][Lys(Me)](Ac)N[3Pal][NMeK]([AEEA-AEEA-γGlu-Lauroyl])-NH2; disulfide 1-6)
8.15 | CCCCCCCCCCCC(=O)N[C@@H](CCC(=O)NCCOCCOCC(=O)NCCOCCOCC(=O)NCCCC[C@@H](C(N)=O)N(C)C(=O)[C@H](Cc1cccnc1)NC(=O)[C@H](CC(N)=O)NC(=O)[C@H](CCCCN(C)C(C)=O)NC(=O)C1(NC(=O)[C@H](Cc2ccc3ccccc3c2)NC(=O)[C@H](Cc2ccc(OCCCCC[N+](C)(C)C)cc2)NC(=O)[C@H]2NC(=O)[C@H](CCCCN(C)C(C)=O)NC(=O)[C@H](Cc3c[nH]c4c(C)cccc34)NC(=O)[C@H]([C@@H](C)O)NC(=O)[C@H](CC(=O)N(C)C)NC(=O)[C@@H](NC(=O)CCOCCOCC[N+](C)(C)C)C(C)(C)SSC2(C)C)CCOCC1)C(=O)O [compound 314, cPEG3aCO-Pen(3)-N(N(Me)2)-T-7MeW-K(NMeAC)-Pen(3)-TMAPF-2Nal-THP-K(NMeaC)-N-3Pya-NMeK(PEG2PEG2gEC12)-CONH2] ({Me3N+(CH2)2O(CH2)2O(CH2)2CO}-[Pen]D(NMe2)T[Trp(7-Me)][Lys(Me)](Ac)[Pen]Y(X3)[2Nal][Thp][Lys(Me)](Ac)N[3Pal][NMeK]([AEEA-AEEA-γGlu-Lauroyl])-NH2; disulfide 1-6)

system: not listed separately; experiment: Exposed Polar Surface Area (EPSA); type: physicochemical; settings: SFC on Chirex 3014 column; sample 1 mM DMSO stock; read-out: EPSA
Outline: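 Chirex 3014 column, 35 °C, 4 mL/min; CO2/MeOH + 20 mM NH4 formate, 5→60% modifier at 20%/min. UV/MS detection. EPSA (Å^2) from retention time vs 8-standard calibration line; duplicates; 1 mM DMSO stock injected undiluted.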

EPSA [A^2] | Structure (SMILES)
166 | CC(=O)NCCCC[C@@H]1NC(=O)[C@H](Cc2c[nH]c3c(C)cccc23)NC(=O)[C@H]([C@@H](C)O)NC(=O)[C@H](CC(N)=O)NC(=O)[C@@H](NC(C)=O)C(C)(C)SSC(C)(C)[C@@H](C(=O)N[C@@H](Cc2ccc(OCC[N+]3(C)CCOCC3)cc2)C(=O)N[C@@H](Cc2ccc3ccccc3c2)C(=O)NC2(C(=O)N[C@@H](CCCCNC(C)=O)C(=O)N[C@@H](CC(N)=O)C(=O)N[C@@H](Cc3cccnc3)C(=O)N(C)CC(N)=O)CCOCC2)NC1=O [compound 562, MeCO-Pen(3)-N-T-7MeW-K(Ac)-Pen(3)-MMoEF-2Nal-THP-K(Ac)-N-3Pya-Sar-CONH2]
173 | CC(=O)NCCCC[C@@H]1NC(=O)[C@H](Cc2c[nH]c3ccccc23)NC(=O)[C@H]([C@@H](C)O)NC(=O)[C@H](CC(N)=O)NC(=O)[C@@H](NC(=O)[C@@H](CCCC[N+](C)(C)C)NC(C)=O)CCSC[C@@](C)(C(=O)N[C@@H](Cc2ccc(OCCN)cc2)C(=O)N[C@@H](Cc2ccc3ccccc3c2)C(=O)NC2(C(=O)N[C@@H](CCCCNC(C)=O)C(=O)N[C@@H](CC(N)=O)C(=O)N[C@@H](Cc3cccnc3)C(=O)N(C)CC(N)=O)CCOCC2)NC1=O [compound 569, MeCO-k(Me)3-Abu(1)-N-T-W-K(Ac)-aMeC(1)-AEF-2Nal-THP-K(Ac)-N-3Pya-Sar-CONH2] (Ac-[dLys(Me3)][Abu(4-yl)]NTWK(Ac)[αMeC][AEF][2Nal][Thp]K(Ac)N[3Pal][Sar]-NH2; thioether 2-7)
